Measurements: patent US20240252697A1, “INACTIVATION OF PATHOGENS IN EX VIVO BLOOD PRODUCTS IN STORAGE BAGS USING VISIBLE LIGHT” (priority 2015, published 2024)
Marks after values point to notes of the source that are not given here.

Tested on: feline calicivirus (FCV)
Assay: 405 nm light inactivation of FCV suspended in supplemented minimal medium, counted by plaque assay on FEA cells
Assay type: cell-based, feline calicivirus vaccine strain F9

With `Cc1cc2nc3c(=O)[nH]c(=O)nc-3n(C[C@H](O)[C@H](O)[C@H](O)CO)c2cc1C` [Riboflavin] the “Log10 reduction/inactivation of FCV” value (FCV in MM plus components at DMEM concentrations, after) was 1.3 Log10, the “Exposed Viral Population (±St Dev)” value (FCV in minimal media plus photosensitive components at DMEM concentrations, 155 mW cm^−2, mean count n = 3 ± SD) was 3.77 ± 0.61 and the “Log10 Reduction” value (FCV in minimal media plus photosensitive components, 155 mW cm^−2, exposed vs non-exposed control, asterisk = P ≤ 0.05) was 1.28* Log10.
